Laboratory results published in PubChem BioAssay (NCI).
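Five compound concentrations were applied to cells in 96-well plates for 48 hours; endpoints were derived by simple linear interpolation of the resulting dose-response curve. Here, GI50 denotes the concentration required for 50% inhibition of growth. At the TGI there is no net growth.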

Experiments:
Assay in all cases: inhibition of tumour cell growth, NCI panel, 48 h
786-0 renal = tested on: 786-0 renal
A498 renal = tested on: A498 renal
A549 NSCLC = tested on: A549 NSCLC
ACHN renal = tested on: ACHN renal
BT-549 breast = tested on: BT-549 breast
CAKI-1 renal = tested on: CAKI-1 renal
CCRF-CEM leukemia = tested on: CCRF-CEM leukemia
COLO 205 colon = tested on: COLO 205 colon
DU-145 prostate = tested on: DU-145 prostate
EKVX NSCLC = tested on: EKVX NSCLC
HCC-2998 colon = tested on: HCC-2998 colon
HCT-116 colon = tested on: HCT-116 colon
HCT-15 colon = tested on: HCT-15 colon
HL-60(TB) leukemia = tested on: HL-60(TB) leukemia
HOP-62 NSCLC = tested on: HOP-62 NSCLC
HOP-92 NSCLC = tested on: HOP-92 NSCLC
HS 578T breast = tested on: HS 578T breast
HT29 colon = tested on: HT29 colon
IGROV1 ovarian = tested on: IGROV1 ovarian
K-562 leukemia = tested on: K-562 leukemia
KM12 colon = tested on: KM12 colon
LOX IMVI melanoma = tested on: LOX IMVI melanoma
M14 melanoma = tested on: M14 melanoma
MALME-3M melanoma = tested on: MALME-3M melanoma
MDA-MB-231 breast = tested on: MDA-MB-231 breast
MDA-MB-435 = tested on: MDA-MB-435
MOLT-4 leukemia = tested on: MOLT-4 leukemia
NCI-H226 lung = tested on: NCI-H226 lung
NCI-H23 lung = tested on: NCI-H23 lung
NCI-H522 lung = tested on: NCI-H522 lung
NCI/ADR-RES ovarian = tested on: NCI/ADR-RES ovarian
OVCAR-3 ovarian = tested on: OVCAR-3 ovarian
OVCAR-4 ovarian = tested on: OVCAR-4 ovarian
OVCAR-5 ovarian = tested on: OVCAR-5 ovarian
OVCAR-8 ovarian = tested on: OVCAR-8 ovarian
PC-3 prostate = tested on: PC-3 prostate
RPMI-8226 leukemia = tested on: RPMI-8226 leukemia
RXF 393 renal = tested on: RXF 393 renal
SF-295 CNS = tested on: SF-295 CNS
SF-539 CNS = tested on: SF-539 CNS
SK-MEL-2 melanoma = tested on: SK-MEL-2 melanoma
SK-MEL-28 melanoma = tested on: SK-MEL-28 melanoma
SK-MEL-5 melanoma = tested on: SK-MEL-5 melanoma
SK-OV-3 ovarian = tested on: SK-OV-3 ovarian
SN12C renal = tested on: SN12C renal
SNB-19 CNS = tested on: SNB-19 CNS
SNB-75 CNS = tested on: SNB-75 CNS
SW-620 colon = tested on: SW-620 colon
T-47D breast = tested on: T-47D breast
TK-10 renal = tested on: TK-10 renal
U251 CNS = tested on: U251 CNS
UACC-257 melanoma = tested on: UACC-257 melanoma
UACC-62 melanoma = tested on: UACC-62 melanoma
UO-31 renal = tested on: UO-31 renal
NCI-H460 lung = tested on: NCI-H460 lung

`Cc1cn2cc(-c3ccc4c(c3)CC(=O)N4)nc2s1` gave a GI50 (786-0 renal) of over 100 µM, a TGI (786-0 renal) of over 100 µM and a GI50 (A498 renal) of over 100 µM. The TGI (A498 renal) was over 100 µM, the GI50 (A549 NSCLC) was over 100 µM and the TGI (A549 NSCLC) was over 100 µM. For the same compound, the GI50 (ACHN renal) was 49.7 µM, the TGI (ACHN renal) was over 100 µM and the GI50 (BT-549 breast) was over 100 µM. For the same compound, the TGI (BT-549 breast) was over 100 µM, the GI50 (CAKI-1 renal) was over 100 µM and the TGI (CAKI-1 renal) was over 100 µM. The GI50 (CCRF-CEM leukemia) was over 100 µM, the TGI (CCRF-CEM leukemia) was over 100 µM and the GI50 (COLO 205 colon) was over 100 µM. It also gave a TGI (COLO 205 colon) of over 100 µM, a GI50 (DU-145 prostate) of over 100 µM and a TGI (DU-145 prostate) of over 100 µM. It also gave a GI50 (EKVX NSCLC) of 79.2 µM, a TGI (EKVX NSCLC) of over 100 µM and a GI50 (HCC-2998 colon) of 46.2 µM. For the same compound, the TGI (HCC-2998 colon) was over 100 µM, the GI50 (HCT-116 colon) was 70.1 µM and the TGI (HCT-116 colon) was over 100 µM. The GI50 (HCT-15 colon) was 67 µM, the TGI (HCT-15 colon) was over 100 µM and the GI50 (HL-60(TB) leukemia) was over 100 µM. The TGI (HL-60(TB) leukemia) was over 100 µM, the GI50 (HOP-62 NSCLC) was 64.7 µM and the TGI (HOP-62 NSCLC) was over 100 µM. It also gave a GI50 (HOP-92 NSCLC) of over 100 µM, a TGI (HOP-92 NSCLC) of over 100 µM and a GI50 (HS 578T breast) of over 100 µM. The TGI (HS 578T breast) was over 100 µM, the GI50 (HT29 colon) was 85.5 µM and the TGI (HT29 colon) was over 100 µM. The GI50 (IGROV1 ovarian) was over 100 µM, the TGI (IGROV1 ovarian) was over 100 µM and the GI50 (K-562 leukemia) was 61.9 µM. The TGI (K-562 leukemia) was over 100 µM, the GI50 (KM12 colon) was 44.2 µM and the TGI (KM12 colon) was over 100 µM. It also gave a GI50 (LOX IMVI melanoma) of 20.5 µM, a TGI (LOX IMVI melanoma) of over 100 µM and a GI50 (M14 melanoma) of over 100 µM. For the same compound, the TGI (M14 melanoma) was over 100 µM, the GI50 (MALME-3M melanoma) was over 100 µM and the TGI (MALME-3M melanoma) was over 100 µM. It also gave a GI50 (MDA-MB-231 breast) of over 100 µM, a TGI (MDA-MB-231 breast) of over 100 µM and a GI50 (MDA-MB-435) of 91 µM. It also gave a TGI (MDA-MB-435) of over 100 µM, a GI50 (MOLT-4 leukemia) of 50.7 µM and a TGI (MOLT-4 leukemia) of over 100 µM. The GI50 (NCI-H226 lung) was over 100 µM, the TGI (NCI-H226 lung) was over 100 µM and the GI50 (NCI-H23 lung) was over 100 µM. It also gave a TGI (NCI-H23 lung) of over 100 µM, a GI50 (NCI-H522 lung) of 99.6 µM and a TGI (NCI-H522 lung) of over 100 µM. It also gave a GI50 (NCI/ADR-RES ovarian) of over 100 µM, a TGI (NCI/ADR-RES ovarian) of over 100 µM and a GI50 (OVCAR-3 ovarian) of over 100 µM. The TGI (OVCAR-3 ovarian) was over 100 µM, the GI50 (OVCAR-4 ovarian) was over 100 µM and the TGI (OVCAR-4 ovarian) was over 100 µM. The GI50 (OVCAR-5 ovarian) was over 100 µM, the TGI (OVCAR-5 ovarian) was over 100 µM and the GI50 (OVCAR-8 ovarian) was over 100 µM. The TGI (OVCAR-8 ovarian) was over 100 µM, the GI50 (PC-3 prostate) was over 100 µM and the TGI (PC-3 prostate) was over 100 µM. For the same compound, the GI50 (RPMI-8226 leukemia) was 35.9 µM, the TGI (RPMI-8226 leukemia) was over 100 µM and the GI50 (RXF 393 renal) was over 100 µM. The TGI (RXF 393 renal) was over 100 µM, the GI50 (SF-295 CNS) was over 100 µM and the TGI (SF-295 CNS) was over 100 µM. It also gave a GI50 (SF-539 CNS) of over 100 µM, a TGI (SF-539 CNS) of over 100 µM and a GI50 (SK-MEL-2 melanoma) of over 100 µM. For the same compound, the TGI (SK-MEL-2 melanoma) was over 100 µM, the GI50 (SK-MEL-28 melanoma) was over 100 µM and the TGI (SK-MEL-28 melanoma) was over 100 µM. The GI50 (SK-MEL-5 melanoma) was 94 µM, the TGI (SK-MEL-5 melanoma) was over 100 µM and the GI50 (SK-OV-3 ovarian) was over 100 µM. The TGI (SK-OV-3 ovarian) was over 100 µM, the GI50 (SN12C renal) was over 100 µM and the TGI (SN12C renal) was over 100 µM. The GI50 (SNB-19 CNS) was over 100 µM, the TGI (SNB-19 CNS) was over 100 µM and the GI50 (SNB-75 CNS) was over 100 µM. For the same compound, the TGI (SNB-75 CNS) was over 100 µM, the GI50 (SW-620 colon) was 34 µM and the TGI (SW-620 colon) was over 100 µM. For the same compound, the GI50 (T-47D breast) was 43.4 µM, the TGI (T-47D breast) was over 100 µM and the GI50 (TK-10 renal) was over 100 µM. The TGI (TK-10 renal) was over 100 µM, the GI50 (U251 CNS) was over 100 µM and the TGI (U251 CNS) was over 100 µM. The GI50 (UACC-257 melanoma) was over 100 µM, the TGI (UACC-257 melanoma) was over 100 µM and the GI50 (UACC-62 melanoma) was 33.7 µM. It also gave a TGI (UACC-62 melanoma) of over 100 µM, a GI50 (UO-31 renal) of over 100 µM and a TGI (UO-31 renal) of over 100 µM.

`C=C(C)[C@@H]1CC[C@]2(C(=O)OCCOCCOCC[P+](c3ccccc3)(c3ccccc3)c3ccccc3)CC[C@]3(C)[C@H](CC[C@@H]4[C@@]5(C)CC[C@H](C)C(C)(C)[C@@H]5CC[C@]43C)[C@@H]12` gave a GI50 (HOP-62 NSCLC) of 0.0384 µM, a TGI (HOP-62 NSCLC) of 0.614 µM and a GI50 (NCI-H460 lung) of 0.0383 µM. It also gave a TGI (NCI-H460 lung) of over 100 µM, a GI50 (OVCAR-8 ovarian) of 0.0431 µM and a TGI (OVCAR-8 ovarian) of over 100 µM.
